Measured values reported in PubChem BioAssay AID1259407 (Chemical Carcinogenesis Research Information System (CCRIS), 2018).
Activity calls are given as the source filed them. The rule behind the calls is not given here.

Tested on: CCRIS mutagenicity, Ames/micronucleus/aberration tests
Test: CCRIS mutagenicity studies
[1] = Test System: AMES SALMONELLA TYPHIMURIUM, Strain/Indicator: TA98, Metabolic Activation: HAMSTER, LIVER, S-9, AROCLOR 1254 (10%), Method: PREINCUBATION
[2] = Test System: AMES SALMONELLA TYPHIMURIUM, Strain/Indicator: TA98, Metabolic Activation: NONE, Method: PREINCUBATION
[3] = Test System: AMES SALMONELLA TYPHIMURIUM, Strain/Indicator: TA98, Metabolic Activation: RAT, LIVER, S-9, AROCLOR 1254 (10%), Method: PREINCUBATION
[4] = Test System: AMES SALMONELLA TYPHIMURIUM, Strain/Indicator: TA100, Metabolic Activation: HAMSTER, LIVER, S-9, AROCLOR 1254 (10%), Method: PREINCUBATION
[5] = Test System: AMES SALMONELLA TYPHIMURIUM, Strain/Indicator: TA100, Metabolic Activation: NONE, Method: PREINCUBATION
[6] = Test System: AMES SALMONELLA TYPHIMURIUM, Strain/Indicator: TA100, Metabolic Activation: RAT, LIVER, S-9, AROCLOR 1254 (10%), Method: PREINCUBATION
[7] = Test System: AMES SALMONELLA TYPHIMURIUM, Strain/Indicator: TA1535, Metabolic Activation: HAMSTER, LIVER, S-9, AROCLOR 1254 (10%), Method: PREINCUBATION
[8] = Test System: AMES SALMONELLA TYPHIMURIUM, Strain/Indicator: TA1535, Metabolic Activation: NONE, Method: PREINCUBATION
[9] = Test System: AMES SALMONELLA TYPHIMURIUM, Strain/Indicator: TA1535, Metabolic Activation: RAT, LIVER, S-9, AROCLOR 1254 (10%), Method: PREINCUBATION
[10] = Test System: AMES SALMONELLA TYPHIMURIUM, Strain/Indicator: TA97, Metabolic Activation: NONE, Method: PREINCUBATION

## Cl/C=C\CCl
Test System: AMES SALMONELLA TYPHIMURIUM, Strain/Indicator: TA100, Metabolic Activation: NONE, Method: STANDARD PLATE
  mutagenic call: active; positive
Test System: AMES SALMONELLA TYPHIMURIUM, Strain/Indicator: TA100, Metabolic Activation: RAT, LIVER, S-9, AROCLOR 1254, Method: STANDARD PLATE
  mutagenic call: active; positive
Test System: AMES SALMONELLA TYPHIMURIUM, Strain/Indicator: TA1535, Metabolic Activation: NONE, Method: STANDARD PLATE
  mutagenic call: active; positive
Test System: AMES SALMONELLA TYPHIMURIUM, Strain/Indicator: TA1535, Metabolic Activation: RAT, LIVER, S-9, AROCLOR 1254, Method: STANDARD PLATE
  mutagenic call: active; positive
Test System: AMES SALMONELLA TYPHIMURIUM, Strain/Indicator: TA1978, Metabolic Activation: NONE, Method: STANDARD PLATE
  mutagenic call: active; positive
Test System: AMES SALMONELLA TYPHIMURIUM, Strain/Indicator: TA1978, Metabolic Activation: RAT, LIVER, S-9, AROCLOR 1254, Method: STANDARD PLATE
  mutagenic call: active; positive

## CC(=O)OCc1ccc2c(c1)OCO2
[1]
  mutagenic call: inactive; negative
[2]
  mutagenic call: inactive; negative
[3]
  mutagenic call: inactive; negative
[4]
  mutagenic call: inactive; negative
[5]
  mutagenic call: inactive; negative
[6]
  mutagenic call: inactive; negative
[7]
  mutagenic call: inactive; negative
[8]
  mutagenic call: inactive; negative
[9]
  mutagenic call: inactive; negative
Test System: AMES SALMONELLA TYPHIMURIUM, Strain/Indicator: TA1537, Metabolic Activation: HAMSTER, LIVER, S-9, AROCLOR 1254 (10%), Method: PREINCUBATION
  mutagenic call: inactive; negative
Test System: AMES SALMONELLA TYPHIMURIUM, Strain/Indicator: TA1537, Metabolic Activation: NONE, Method: PREINCUBATION
  mutagenic call: inactive; negative
Test System: AMES SALMONELLA TYPHIMURIUM, Strain/Indicator: TA1537, Metabolic Activation: RAT, LIVER, S-9, AROCLOR 1254 (10%), Method: PREINCUBATION
  mutagenic call: inactive; negative

## Nc1ccccc1C(=O)OC/C=C/c1ccccc1
End Point: IN VITRO CHROMOSOMAL ABERRATIONS, Test System: CHINESE HAMSTER LUNG FIBROBLAST CELLS (CHL/IU), Metabolic Activation: NONE
  mutagenic call: inactive; negative
End Point: IN VITRO CHROMOSOMAL ABERRATIONS, Test System: CHO CELLS, Metabolic Activation: NONE
  mutagenic call: inactive; negative
End Point: IN VITRO CHROMOSOMAL ABERRATIONS, Test System: CHO CELLS, Metabolic Activation: RAT, LIVER, S-9, AROCLOR 1254
  mutagenic call: inactive; negative
Test System: AMES SALMONELLA TYPHIMURIUM, Strain/Indicator: TA97, Metabolic Activation: HAMSTER, LIVER, S-9, AROCLOR 1254 (10%), Method: PREINCUBATION
  mutagenic call: inactive; negative
Test System: AMES SALMONELLA TYPHIMURIUM, Strain/Indicator: TA97, Metabolic Activation: HAMSTER, LIVER, S-9, AROCLOR 1254 (30%), Method: PREINCUBATION
  mutagenic call: inactive; negative
[10]
  mutagenic call: inactive; negative
Test System: AMES SALMONELLA TYPHIMURIUM, Strain/Indicator: TA97, Metabolic Activation: RAT, LIVER, S-9, AROCLOR 1254 (10%), Method: PREINCUBATION
  mutagenic call: inactive; negative
Test System: AMES SALMONELLA TYPHIMURIUM, Strain/Indicator: TA97, Metabolic Activation: RAT, LIVER, S-9, AROCLOR 1254 (30%), Method: PREINCUBATION
  mutagenic call: inactive; negative
[1]
  mutagenic call: inactive; negative
Test System: AMES SALMONELLA TYPHIMURIUM, Strain/Indicator: TA98, Metabolic Activation: HAMSTER, LIVER, S-9, AROCLOR 1254 (30%), Method: PREINCUBATION
  mutagenic call: inactive; negative
[2]
  mutagenic call: inactive; negative
[3]
  mutagenic call: inactive; negative
Test System: AMES SALMONELLA TYPHIMURIUM, Strain/Indicator: TA98, Metabolic Activation: RAT, LIVER, S-9, AROCLOR 1254 (30%), Method: PREINCUBATION
  mutagenic call: inactive; negative
[4]
  mutagenic call: inactive; negative
Test System: AMES SALMONELLA TYPHIMURIUM, Strain/Indicator: TA100, Metabolic Activation: HAMSTER, LIVER, S-9, AROCLOR 1254 (30%), Method: PREINCUBATION
  mutagenic call: inactive; negative
[5]
  mutagenic call: inactive; negative
[6]
  mutagenic call: inactive; negative
Test System: AMES SALMONELLA TYPHIMURIUM, Strain/Indicator: TA100, Metabolic Activation: RAT, LIVER, S-9, AROCLOR 1254 (30%), Method: PREINCUBATION
  mutagenic call: inactive; negative
[7]
  mutagenic call: inactive; negative
Test System: AMES SALMONELLA TYPHIMURIUM, Strain/Indicator: TA1535, Metabolic Activation: HAMSTER, LIVER, S-9, AROCLOR 1254 (30%), Method: PREINCUBATION
  mutagenic call: inactive; negative
[8]
  mutagenic call: inactive; negative
[9]
  mutagenic call: inactive; negative
Test System: AMES SALMONELLA TYPHIMURIUM, Strain/Indicator: TA1535, Metabolic Activation: RAT, LIVER, S-9, AROCLOR 1254 (30%), Method: PREINCUBATION
  mutagenic call: inactive; negative
Test System: E. COLI, Strain/Indicator: WP2 UVRA, Metabolic Activation: HAMSTER, LIVER, S-9, AROCLOR 1254, Method: STANDARD PLATE
  mutagenic call: inactive; negative
Test System: E. COLI, Strain/Indicator: WP2 UVRA, Metabolic Activation: NONE, Method: STANDARD PLATE
  mutagenic call: inactive; negative
Test System: Mouse lymphoma, Strain/Indicator: L5178Y (tk+/tk-), Metabolic Activation: None, Method: Suspension/plate
  mutagenic call: inactive; negative
Test System: Mouse lymphoma, Strain/Indicator: L5178Y (tk+/tk-), Metabolic Activation: Rat, Liver, S-9, Aroclor 1254, Method: Suspension/plate
  mutagenic call: active; equivocal (previous evaluation positive)
Test System: UDS RAT HEPATOCYTES, Strain/Indicator: BROMODEOXYURIDINE INCORP, Metabolic Activation: NONE, Method: FLOW CYTOMETRIC ANALYSIS
  mutagenic call: inactive; negative
Test System: UDS RAT HEPATOCYTES, Strain/Indicator: THY INCORP, Metabolic Activation: NONE, Method: AUTORADIOGRAPHY
  mutagenic call: inactive; negative

## Clc1c(Cl)c(Cl)c2c(c1Cl)Oc1c(Cl)c(Cl)c(Cl)c(Cl)c1O2
Test System: AMES SALMONELLA TYPHIMURIUM, Strain/Indicator: TA97, Metabolic Activation: HAMSTER, LIVER, S-9, AROCLOR 1254 (10 OR 30%), Method: PREINCUBATION
  mutagenic call: inactive; negative
[10]
  mutagenic call: inactive; negative
Test System: AMES SALMONELLA TYPHIMURIUM, Strain/Indicator: TA97, Metabolic Activation: RAT, LIVER, S-9, AROCLOR 1254 (10 OR 30%), Method: PREINCUBATION
  mutagenic call: inactive; negative
Test System: AMES SALMONELLA TYPHIMURIUM, Strain/Indicator: TA98, Metabolic Activation: HAMSTER, LIVER, S-9, AROCLOR 1254 (10 OR 30%), Method: PREINCUBATION
  mutagenic call: inactive; negative
[2]
  mutagenic call: inactive; negative
Test System: AMES SALMONELLA TYPHIMURIUM, Strain/Indicator: TA98, Metabolic Activation: RAT, LIVER, S-9, AROCLOR 1254 (10 OR 30%), Method: PREINCUBATION
  mutagenic call: inactive; negative
Test System: AMES SALMONELLA TYPHIMURIUM, Strain/Indicator: TA100, Metabolic Activation: HAMSTER, LIVER, S-9, AROCLOR 1254 (10 OR 30%), Method: PREINCUBATION
  mutagenic call: inactive; negative
[5]
  mutagenic call: inactive; negative
Test System: AMES SALMONELLA TYPHIMURIUM, Strain/Indicator: TA100, Metabolic Activation: RAT, LIVER, S-9, AROCLOR 1254 (10 OR 30%), Method: PREINCUBATION
  mutagenic call: inactive; negative
Test System: AMES SALMONELLA TYPHIMURIUM, Strain/Indicator: TA1535, Metabolic Activation: HAMSTER, LIVER, S-9, AROCLOR 1254 (10 OR 30%), Method: PREINCUBATION
  mutagenic call: inactive; negative
[8]
  mutagenic call: inactive; negative
Test System: AMES SALMONELLA TYPHIMURIUM, Strain/Indicator: TA1535, Metabolic Activation: RAT, LIVER, S-9, AROCLOR 1254 (10 OR 30%), Method: PREINCUBATION
  mutagenic call: inactive; negative
